Reference: patent US12509457B2, “Bicyclic nitrogen containing heterocycles as inhibitors of salt-induced kinase SIK2” (priority 2019, dated 2025)
Like-named read-outs stand apart in the source and are kept apart here.

How the values were obtained:
Type in all cases: biochemical
SIK2 = SIK2 (Homo sapiens, UniProt Q9H0K1); test: SIK2 kinase assay, IMAP fluorescence polarization
SIK1 = SIK1 (Homo sapiens, UniProt P57059); test: SIK1 kinase assay, IMAP fluorescence polarization
SIK3 = SIK3 (Homo sapiens, UniProt Q9Y2K2); test: SIK3 kinase assay, IMAP fluorescence polarization
Abl = Abl (Homo sapiens, UniProt P00519); test: Abl kinase assay, IMAP fluorescence polarization
Src = Src (Homo sapiens, UniProt P12931); test: Src kinase assay, IMAP fluorescence polarization
EPHA2 = EPHA2 (Homo sapiens, UniProt P29317); test: EPHA2 kinase assay, IMAP fluorescence polarization
[1] = 50 or 100 μM ATP, average, read-out: SIK2-AVERAGE Ki
[2] = 50 or 100 μM ATP, average, read-out: SIK1-AVERAGE Ki
[3] = 50 or 100 μM ATP, average, read-out: SIK3-AVERAGE Ki
[4] = 50 or 100 μM ATP, average, read-out: Abl-AVERAGE Ki
[5] = 50 or 100 μM ATP, average, read-out: Src-AVERAGE Ki

Chain of SIK1 (P57059 whole entry): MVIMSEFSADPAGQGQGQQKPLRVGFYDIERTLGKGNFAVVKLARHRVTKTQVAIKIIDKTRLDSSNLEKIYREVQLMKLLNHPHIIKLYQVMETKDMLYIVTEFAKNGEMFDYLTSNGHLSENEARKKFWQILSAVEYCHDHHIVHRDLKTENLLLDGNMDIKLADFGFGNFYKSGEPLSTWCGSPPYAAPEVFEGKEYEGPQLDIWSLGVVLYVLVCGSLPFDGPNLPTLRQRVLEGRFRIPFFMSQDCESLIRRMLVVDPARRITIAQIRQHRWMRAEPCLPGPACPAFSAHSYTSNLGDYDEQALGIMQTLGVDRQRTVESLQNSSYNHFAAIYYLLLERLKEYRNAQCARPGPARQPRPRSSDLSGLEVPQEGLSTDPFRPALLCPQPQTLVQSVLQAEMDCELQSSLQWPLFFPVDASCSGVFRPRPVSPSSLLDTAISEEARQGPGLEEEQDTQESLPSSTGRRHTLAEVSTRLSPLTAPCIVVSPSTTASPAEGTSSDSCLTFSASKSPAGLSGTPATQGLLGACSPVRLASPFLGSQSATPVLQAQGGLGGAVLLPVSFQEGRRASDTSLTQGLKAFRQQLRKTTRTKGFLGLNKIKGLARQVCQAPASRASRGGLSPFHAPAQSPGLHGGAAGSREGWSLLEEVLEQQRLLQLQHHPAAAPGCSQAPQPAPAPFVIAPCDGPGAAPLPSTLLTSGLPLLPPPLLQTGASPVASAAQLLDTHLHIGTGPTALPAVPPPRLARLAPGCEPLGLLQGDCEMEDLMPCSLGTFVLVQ
Chain of SIK3 (Q9Y2K2 whole entry): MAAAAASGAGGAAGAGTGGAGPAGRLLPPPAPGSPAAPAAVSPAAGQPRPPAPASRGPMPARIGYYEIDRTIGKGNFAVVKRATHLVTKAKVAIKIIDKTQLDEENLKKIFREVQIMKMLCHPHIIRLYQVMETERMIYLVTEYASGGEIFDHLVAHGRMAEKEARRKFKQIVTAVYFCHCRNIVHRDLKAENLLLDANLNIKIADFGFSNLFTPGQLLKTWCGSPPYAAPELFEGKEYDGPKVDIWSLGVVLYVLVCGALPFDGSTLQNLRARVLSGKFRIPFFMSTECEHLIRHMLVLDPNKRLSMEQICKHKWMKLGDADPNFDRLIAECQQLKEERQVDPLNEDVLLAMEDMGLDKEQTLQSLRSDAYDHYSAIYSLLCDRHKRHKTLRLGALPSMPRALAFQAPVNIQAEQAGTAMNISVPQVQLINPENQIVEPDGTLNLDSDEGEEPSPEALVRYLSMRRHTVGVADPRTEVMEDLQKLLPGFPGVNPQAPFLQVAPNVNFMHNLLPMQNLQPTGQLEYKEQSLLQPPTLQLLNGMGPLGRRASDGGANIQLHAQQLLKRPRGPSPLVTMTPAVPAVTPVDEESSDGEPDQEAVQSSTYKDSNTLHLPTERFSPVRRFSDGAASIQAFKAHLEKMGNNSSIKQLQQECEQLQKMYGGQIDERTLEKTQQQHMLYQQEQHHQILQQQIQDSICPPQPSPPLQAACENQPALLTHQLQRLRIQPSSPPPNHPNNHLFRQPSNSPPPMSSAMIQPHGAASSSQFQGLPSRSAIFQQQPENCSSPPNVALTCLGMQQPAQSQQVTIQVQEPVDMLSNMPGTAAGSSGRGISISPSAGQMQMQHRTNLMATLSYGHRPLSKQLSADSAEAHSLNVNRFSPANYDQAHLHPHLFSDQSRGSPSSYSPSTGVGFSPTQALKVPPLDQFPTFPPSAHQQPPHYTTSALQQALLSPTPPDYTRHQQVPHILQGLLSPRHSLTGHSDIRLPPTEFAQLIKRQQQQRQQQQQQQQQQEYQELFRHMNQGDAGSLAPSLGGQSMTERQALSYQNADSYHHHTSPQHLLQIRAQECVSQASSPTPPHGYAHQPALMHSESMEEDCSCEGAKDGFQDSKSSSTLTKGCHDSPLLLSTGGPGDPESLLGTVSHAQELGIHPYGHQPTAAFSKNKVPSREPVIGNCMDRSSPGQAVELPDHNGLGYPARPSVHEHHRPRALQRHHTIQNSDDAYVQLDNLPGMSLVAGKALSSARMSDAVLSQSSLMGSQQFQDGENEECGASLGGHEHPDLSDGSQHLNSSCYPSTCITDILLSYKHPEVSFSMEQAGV
Chain of Abl (P00519 whole entry): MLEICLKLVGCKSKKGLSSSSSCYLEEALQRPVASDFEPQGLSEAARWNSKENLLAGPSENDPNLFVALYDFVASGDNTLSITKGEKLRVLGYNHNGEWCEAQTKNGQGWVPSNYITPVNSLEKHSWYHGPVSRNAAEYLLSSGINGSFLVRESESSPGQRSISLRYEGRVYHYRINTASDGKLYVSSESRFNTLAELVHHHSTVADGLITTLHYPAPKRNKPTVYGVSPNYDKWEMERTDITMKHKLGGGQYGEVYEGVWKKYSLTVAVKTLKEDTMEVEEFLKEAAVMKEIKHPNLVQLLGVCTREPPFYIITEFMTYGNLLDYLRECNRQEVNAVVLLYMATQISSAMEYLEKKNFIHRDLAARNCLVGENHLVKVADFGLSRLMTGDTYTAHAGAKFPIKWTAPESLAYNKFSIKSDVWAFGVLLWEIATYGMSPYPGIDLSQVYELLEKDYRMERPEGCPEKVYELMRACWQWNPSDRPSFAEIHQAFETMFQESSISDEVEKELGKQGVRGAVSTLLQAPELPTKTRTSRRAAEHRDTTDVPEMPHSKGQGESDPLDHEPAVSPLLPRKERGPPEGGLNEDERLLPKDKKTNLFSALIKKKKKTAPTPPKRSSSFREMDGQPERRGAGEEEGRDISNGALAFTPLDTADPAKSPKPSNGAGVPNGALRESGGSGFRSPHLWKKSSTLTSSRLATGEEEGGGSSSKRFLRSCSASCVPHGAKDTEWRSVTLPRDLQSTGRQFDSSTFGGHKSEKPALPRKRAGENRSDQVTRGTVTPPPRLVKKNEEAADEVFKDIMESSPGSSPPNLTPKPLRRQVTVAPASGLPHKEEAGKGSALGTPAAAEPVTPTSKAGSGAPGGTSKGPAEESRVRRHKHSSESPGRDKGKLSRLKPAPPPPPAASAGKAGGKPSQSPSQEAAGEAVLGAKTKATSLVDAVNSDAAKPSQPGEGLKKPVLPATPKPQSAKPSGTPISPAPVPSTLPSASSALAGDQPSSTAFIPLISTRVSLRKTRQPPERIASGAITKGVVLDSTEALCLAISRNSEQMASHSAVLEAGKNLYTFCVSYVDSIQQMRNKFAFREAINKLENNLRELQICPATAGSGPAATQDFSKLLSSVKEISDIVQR
Chain of Src (P12931 whole entry): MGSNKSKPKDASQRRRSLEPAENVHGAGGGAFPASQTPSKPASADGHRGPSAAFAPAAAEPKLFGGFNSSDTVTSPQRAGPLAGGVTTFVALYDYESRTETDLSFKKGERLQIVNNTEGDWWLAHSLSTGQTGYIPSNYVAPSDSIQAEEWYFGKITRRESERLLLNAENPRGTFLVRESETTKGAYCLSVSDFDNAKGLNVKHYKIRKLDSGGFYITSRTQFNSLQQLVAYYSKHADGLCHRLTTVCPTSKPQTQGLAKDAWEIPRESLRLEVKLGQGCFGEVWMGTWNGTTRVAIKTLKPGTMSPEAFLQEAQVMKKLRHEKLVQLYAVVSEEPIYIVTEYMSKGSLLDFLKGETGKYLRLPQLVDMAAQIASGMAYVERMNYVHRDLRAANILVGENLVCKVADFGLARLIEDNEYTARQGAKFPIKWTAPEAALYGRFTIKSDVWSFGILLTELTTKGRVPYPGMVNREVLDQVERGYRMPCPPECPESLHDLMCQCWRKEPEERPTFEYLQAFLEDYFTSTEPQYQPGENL
Chain of EPHA2 (P29317 24-976): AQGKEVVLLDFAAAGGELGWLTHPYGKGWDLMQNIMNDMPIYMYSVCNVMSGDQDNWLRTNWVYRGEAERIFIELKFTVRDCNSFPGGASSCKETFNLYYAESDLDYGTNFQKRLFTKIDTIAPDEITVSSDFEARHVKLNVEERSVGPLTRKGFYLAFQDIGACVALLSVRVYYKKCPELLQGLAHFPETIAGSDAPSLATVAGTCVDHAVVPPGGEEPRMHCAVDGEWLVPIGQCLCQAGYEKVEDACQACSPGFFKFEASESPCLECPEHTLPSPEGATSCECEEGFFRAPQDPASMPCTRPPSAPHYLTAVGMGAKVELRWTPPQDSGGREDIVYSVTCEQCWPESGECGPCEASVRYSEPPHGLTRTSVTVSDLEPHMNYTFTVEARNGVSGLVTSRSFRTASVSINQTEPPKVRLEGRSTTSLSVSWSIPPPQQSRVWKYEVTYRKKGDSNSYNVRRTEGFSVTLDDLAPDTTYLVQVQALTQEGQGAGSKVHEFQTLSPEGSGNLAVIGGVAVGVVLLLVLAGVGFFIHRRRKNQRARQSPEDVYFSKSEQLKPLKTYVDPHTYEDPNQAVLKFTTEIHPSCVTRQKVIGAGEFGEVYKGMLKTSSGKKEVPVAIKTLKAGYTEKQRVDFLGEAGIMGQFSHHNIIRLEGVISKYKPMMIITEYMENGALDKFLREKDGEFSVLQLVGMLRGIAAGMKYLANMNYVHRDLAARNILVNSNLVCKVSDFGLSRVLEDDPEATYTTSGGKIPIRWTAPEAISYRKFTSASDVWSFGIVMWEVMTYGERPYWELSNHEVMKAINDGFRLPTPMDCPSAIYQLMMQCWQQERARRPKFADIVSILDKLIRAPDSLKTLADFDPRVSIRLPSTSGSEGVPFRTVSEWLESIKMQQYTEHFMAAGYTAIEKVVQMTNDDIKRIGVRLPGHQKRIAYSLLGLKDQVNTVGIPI

`Cc1cccc(Cl)c1N1Cc2cnc(N)cc2N(C2CNC2)C1=O` [Example 8, 7-amino-1-(azetidin-3-yl)-3-(2-chloro-6-methyl-phenyl)-4H-pyrido[4,3-d]pyrimidin-2-one] showed a Ki (SIK2; [1]) of 4.49 nM, a Ki (SIK1; [2]) of 7.76 nM and a Ki (SIK3; [3]) of 45.6 nM. For the same molecule, the Ki (Abl; [4]) was > 1000 nM, the Ki (Src; [5]) was 158 nM and the Ki (EPHA2) was 149 nM.

Work on `Cc1cccc(F)c1N1Cc2cnc(N)cc2N([C@@H]2CCCCNC2)C1=O` [Example 50, 7-amino-3-(2-fluoro-6-methyl-phenyl)-1-[(3R)-azepan-3-yl]-4H-pyrido[4,3-d]pyrimidin-2-one] yielded a Ki (SIK2; [1]) of 0.152 nM, a Ki (SIK1; [2]) of 0.193 nM and a Ki (SIK3; [3]) of 1.36 nM. For the same molecule, the Ki (Abl; [4]) was 6.12 nM, the Ki (Src; [5]) was 24.2 nM and the Ki (EPHA2; 50 or 100 μM ATP, average) was 13.6 nM.

With `Cc1cccc(F)c1N1Cc2cnc(N)cc2N([C@H]2CCN(C)C2)C1=O` [Example 79, 7-amino-3-(2-fluoro-6-methyl-phenyl)-1-[(3S)-1-methylpyrrolidin-3-yl]-4H-pyrido[4,3-d]pyrimidin-2-one] the Ki (SIK2; [1]) was 6.5 nM, the Ki (SIK1; [2]) was 9.67 nM and the Ki (SIK3; [3]) was 85.4 nM. For the same molecule, the Ki (Abl; [4]) was 488 nM, the Ki (Src; [5]) was > 10000 nM and the Ki (EPHA2) was 164 nM.

`Cc1cccc(Cl)c1N1Cc2cnccc2N(C2CCN(C)CC2)C1=O` [Example 32, 3-(2-chloro-6-methyl-phenyl)-1-(1-methyl-4-piperidyl)-4H-pyrido[4,3-d]pyrimidin-2-one] showed a Ki (SIK2) of 19.6 nM, a Ki (SIK1) of 14.7 nM and a Ki (SIK3) of 144 nM. For the same molecule, the Ki (Abl) was > 10000 nM and the Ki (Src) was 514 nM.

`CCN1CCC(N2C(=O)N(c3c(C)cccc3F)Cc3cnccc32)CC1` [Example 25, 1-(1-ethyl-4-piperidyl)-3-(2-fluoro-6-methyl-phenyl)-4H-pyrido[4,3-d]pyrimidin-2-one] gave a Ki (SIK2) of 17 nM, a Ki (SIK1) of 33.2 nM and a Ki (SIK3) of 36.3 nM. The Ki (Abl) was > 10000 nM and the Ki (Src) was 2640 nM.

In the case of `Cc1cccc(F)c1N1Cc2cnc(N)nc2N([C@@H]2CCCNCC2)C1=O` [Example 68, 7-amino-1-[(4R)-azepan-4-yl]-3-(2-fluoro-6-methyl-phenyl)-4H-pyrimido[4,5-d]pyrimidin-2-one], the Ki (SIK2; [1]) is reported as 0.197 nM, the Ki (SIK1; [2]) is reported as 0.397 nM and the Ki (SIK3; [3]) is reported as 0.845 nM. For the same molecule, the Ki (Abl; [4]) was 15.3 nM, the Ki (Src; [5]) was 47.7 nM and the Ki (EPHA2; 50 or 100 μM ATP, average) was 22.3 nM.

In the case of `Cc1cccc(Cl)c1N1Cc2cnccc2N(C2CCNCC2)C1=O` [Example 66, 3-(2-chloro-6-methyl-phenyl)-1-(4-piperidyl)-4H-pyrido[4,3-d]pyrimidin-2-one], the Ki (SIK2) is reported as 13.2 nM, the Ki (SIK1) is reported as 10.2 nM and the Ki (SIK3) is reported as 98.8 nM. The Ki (Abl) was 621 nM and the Ki (Src) was 436 nM.

`Cc1cccc(F)c1N1Cc2cnc(N)nc2N([C@@H]2CCCN(C)CC2)C1=O` [Example 34, 7-amino-3-(2-fluoro-6-methyl-phenyl)-1[(4R)-1-methylazepan-4-yl]-4H-pyrimido[4,5-d]pyrimidin-2-one] was tested, and the Ki (SIK2; [1]) was 0.374 nM, the Ki (SIK1; [2]) was 0.733 nM and the Ki (SIK3; [3]) was 1.48 nM. It also gave a Ki (Abl; [4]) of 33.6 nM, a Ki (Src; [5]) of 138 nM and a Ki (EPHA2) of 29.6 nM.

`CCN1CCC(N2C(=O)N(c3c(C)cccc3F)Cc3cncnc32)CC1` [Example 27, 1-(1-ethyl-4-piperidyl)-3-(2-fluoro-6-methyl-phenyl)-4H-pyrimido[4,5-d]pyrimidin-2-one] gave a Ki (SIK2) of 210 nM, a Ki (SIK1) of 635 nM and a Ki (SIK3) of 956 nM. For the same molecule, the Ki (Abl) was 4190 nM and the Ki (Src) was > 100000 nM.

Work on `Cc1cccc(Cl)c1N1Cc2cncnc2N(C2CCN(C)CC2)C1=O` [Example 28, 3-(2-chloro-6-methyl-phenyl)-1-(1-methyl-4-piperidyl)-4H-pyrimido[4,5-d]pyrimidin-2-one] yielded a Ki (SIK2) of 213 nM, a Ki (SIK1) of 397 nM and a Ki (SIK3) of 2220 nM. For the same molecule, the Ki (Abl) was 6220 nM and the Ki (Src) was > 100000 nM.

For `Cc1cccc(F)c1N1Cc2cnc(N)cc2N(C2CCN(C)CC2)C1=O` [Example 3, 7-Amino-3-(2-fluoro-6-methyl-phenyl)-1-(1-methyl-4-piperidyl)-4H-pyrido[4,3-d]pyrimidin-2-one], the Ki (SIK2) was 0.239 nM, the Ki (SIK1) was 0.632 nM and the Ki (SIK3) was 0.975 nM. For the same molecule, the Ki (Abl) was 122 nM and the Ki (Src) was 387 nM.

`Cc1cccc(Cl)c1N1Cc2cnc(N)cc2N(C2CCNCC2)C1=O` [Example 6, 7-amino-3-(2-chloro-6-methyl-phenyl)-1-(4-piperidyl)-4H-pyrido[4,3-d]pyrimidin-2-one] was tested, and the Ki (SIK2) was 3.09 nM, the Ki (SIK1) was 3.35 nM and the Ki (SIK3) was 10.8 nM. The Ki (Abl) was 108 nM and the Ki (Src) was 216 nM.

For `Cc1cccc(Cl)c1N1Cc2cnc(N)nc2N(C2CCN(C)CC2)C1=O` [Example 22, 7-amino-3-(2-chloro-6-methyl-phenyl)-1-(1-methyl-4-piperidyl)-4H-pyrimido[4,5-d]pyrimidin-2-one], the Ki (SIK2) was 3.07 nM, the Ki (SIK1) was 10.6 nM and the Ki (SIK3) was 27.8 nM. The Ki (Abl) was > 1000 nM and the Ki (Src) was 265 nM.

With `Cc1cccc(F)c1N1Cc2cnc(N)nc2N(C2CCNCC2)C1=O` [Example 11, 7-Amino-3-(2-fluoro-6-methyl-phenyl)-1-(4-piperidyl)-4H-pyrimido[4,5-d]pyrimidin-2-one] the Ki (SIK2) was 0.481 nM, the Ki (SIK1) was 2.36 nM and the Ki (SIK3) was 4.44 nM. The Ki (Abl) was 171 nM and the Ki (Src) was 464 nM.

`Cc1cccc(F)c1N1Cc2cnc(N)cc2N(C2CCNCC2)C1=O` [Example 1, 7-Amino-3-(2-fluoro-6-methyl-phenyl)-1-(4-piperidyl)-4H-pyrido[4,3-d]pyrimidin-2-one] showed a Ki (SIK2) of 0.248 nM, a Ki (SIK1) of 1.68 nM and a Ki (SIK3) of 1.79 nM. The Ki (Abl) was > 1000 nM and the Ki (Src) was > 1000 nM.

`Cc1cccc(Cl)c1N1Cc2cncnc2N(C2CCNCC2)C1=O` [Example 17, 3-(2-chloro-6-methyl-phenyl)-1-(4-piperidyl)-4H-pyrimido[4,5-d]pyrimidin-2-one] was tested, and the Ki (SIK2) was 128 nM, the Ki (SIK1) was 273 nM and the Ki (SIK3) was 1400 nM. The Ki (Abl) was 3950 nM and the Ki (Src) was > 100000 nM.

For `Cc1cccc(F)c1N1Cc2cncnc2N(C2CCN(C)CC2)C1=O` [Example 26, 3-(2-fluoro-6-methyl-phenyl)-1-(1-methyl-4-piperidyl)-4H-pyrimido[4,5-d]pyrimidin-2-one], the Ki (SIK2) was 192 nM, the Ki (SIK1) was 586 nM and the Ki (SIK3) was 895 nM. For the same molecule, the Ki (Abl) was > 100000 nM and the Ki (Src) was > 100000 nM.

`Cc1cccc(F)c1N1Cc2cnccc2N(C2CCN(C)CC2)C1=O` [Example 24, 3-(2-fluoro-6-methyl-phenyl)-1-(1-methyl-4-piperidyl)-4H-pyrido[4,3-d]pyrimidin-2-one] showed a Ki (SIK2) of 8.97 nM, a Ki (SIK1) of 20.6 nM and a Ki (SIK3) of 24 nM. For the same molecule, the Ki (Abl) was > 10000 nM and the Ki (Src) was 2250 nM.

`Cc1cccc(F)c1N1Cc2cncnc2N(C2CCNCC2)C1=O` [Example 16, 3-(2-fluoro-6-methyl-phenyl)-1-(4-piperidyl)-4H-pyrimido[4,5-d]pyrimidin-2-one] gave a Ki (SIK2) of 92.2 nM, a Ki (SIK1) of 223 nM and a Ki (SIK3) of 489 nM. For the same molecule, the Ki (Abl) was 4180 nM and the Ki (Src) was > 100000 nM.

Work on `CCN1CCC(N2C(=O)N(c3c(C)cccc3F)Cc3cnc(N)nc32)CC1` [Example 20, 7-amino-1-(1-ethyl-4-piperidyl)-3-(2-fluoro-6-methyl-phenyl)-4H-pyrimido[4,5-d]pyrimidin-2-one] yielded a Ki (SIK2) of 0.803 nM, a Ki (SIK1) of 6.61 nM and a Ki (SIK3) of 7.18 nM. The Ki (Abl) was > 1000 nM and the Ki (Src) was > 1000 nM.

For `CCN1CCC(N2C(=O)N(c3c(C)cccc3Cl)Cc3cnccc32)CC1` [Example 33, 3-(2-chloro-6-methyl-phenyl)-1-(1-ethyl-4-piperidyl)-4H-pyrido[4,3-d]pyrimidin-2-one], the Ki (SIK2) was 20.3 nM, the Ki (SIK1) was 34.1 nM and the Ki (SIK3) was 213 nM. For the same molecule, the Ki (Abl) was 4950 nM and the Ki (Src) was 1540 nM.

Work on `Cc1cccc(Cl)c1N1Cc2cnc(N)cc2N(C2CCN(C)CC2)C1=O` [Example 7, 7-amino-3-(2-chloro-6-methyl-phenyl)-1-(1-methyl-4-piperidyl)-4H-pyrido[4,3-d]pyrimidin-2-one] yielded a Ki (SIK2) of 2.49 nM, a Ki (SIK1) of 3.21 nM and a Ki (SIK3) of 9.46 nM. For the same molecule, the Ki (Abl) was 271 nM and the Ki (Src) was 263 nM.

`Cc1cccc(F)c1N1Cc2cnc(N(C)C)cc2N([C@H]2CCC[C@@H](N(C)C)C2)C1=O` (relative stereo) [Example 44, 7-(dimethylamino)-1-[cis-3-(dimethylamino)cyclohexyl]-3-(2-fluoro-6-methyl-phenyl)-4H-pyrido[4,3-d]pyrimidin-2-one] showed a Ki (SIK2; [1]) of 123 nM, a Ki (SIK1; [2]) of 263 nM and a Ki (SIK3; [3]) of 1370 nM. For the same molecule, the Ki (Src; [5]) was > 10000 nM and the Ki (EPHA2; 50 or 100 μM ATP, average) was 6410 nM.

Work on `Cc1cccc(Cl)c1N1Cc2cnc(N)nc2N(C2CCNCC2)C1=O` [Example 15, 7-Amino-3-(2-chloro-6-methyl-phenyl)-1-(4-piperidyl)-4H-pyrimido[4,5-d]pyrimidin-2-one] yielded a Ki (SIK2) of 1.63 nM, a Ki (SIK1) of 6.23 nM and a Ki (SIK3) of 18.7 nM. For the same molecule, the Ki (Abl) was > 1000 nM and the Ki (Src) was 138 nM.

`Cc1cccc(F)c1N1Cc2cnc(N)nc2N(C2CCN(C)CC2)C1=O` [Example 19, 7-Amino-3-(2-fluoro-6-methyl-phenyl)-1-(1-methyl-4-piperidyl)-4H-pyrimido[4,5-d]pyrimidin-2-one] showed a Ki (SIK2) of 0.739 nM, a Ki (SIK1) of 9.73 nM and a Ki (SIK3) of 4.12 nM. The Ki (Abl) was > 1000 nM and the Ki (Src) was > 1000 nM.

`CCN1CCC(N2C(=O)N(c3c(C)cccc3Cl)Cc3cncnc32)CC1` [Example 29, 3-(2-chloro-6-methyl-phenyl)-1-(1-ethyl-4-piperidyl)-4H-pyrimido[4,5-d]pyrimidin-2-one] was tested, and the Ki (SIK2) was 128 nM, the Ki (SIK1) was 207 nM and the Ki (SIK3) was 1700 nM. For the same molecule, the Ki (Abl) was 6490 nM and the Ki (Src) was > 100000 nM.

`Cc1cccc(F)c1N1Cc2cnccc2N(C2CCNCC2)C1=O` [Example 18, 3-(2-Fluoro-6-methyl-phenyl)-1-(4-piperidyl)-4H-pyrido[4,3-d]pyrimidin-2-one] was tested, and the Ki (SIK2) was 8.2 nM, the Ki (SIK1) was 12 nM and the Ki (SIK3) was 21.2 nM. For the same molecule, the Ki (Abl) was 512 nM and the Ki (Src) was 1900 nM.
